The values that follow come from EPA's ToxValDB 9.5 (doi:10.2903/j.efsa.2008.120r).

Data set [1] relates to Colinus virginianus. Conditions: oral; for LD50: mortality.
In data set [2] the test system is Anas platyrhynchos. Conditions: oral; for LD50: mortality.
In data set [3] the test system is Canidae. Conditions: oral, Dog Other, body weight.
The test system of data set [4] is Coturnix japonica. Conditions: reproduction developmental.
The subject of data set [5] is Mus musculus. Conditions: acute; mortality.
For data set [6], the system named is Oncorhynchus mykiss.
The subject of data set [7] is Rattus norvegicus.
The subject of data set [8] is Apis mellifera. Conditions: acute, mortality.
The subject of data set [9] is Daphnia magna. Conditions: chronic/long-term; duration: 21 days; reproduction.
Data set [10] has as its system Tagia sp. Conditions: acute; duration: 14 days; mortality.
The subject of data set [11] is Typhlodromus pyri. In words: LR50; higher = less toxic. Conditions: not reported; mortality.
The mark [12] stands for this setting: short-term, duration: 5 days, feed.

In brackets after ≈: the same amount, converted by molar mass.

Regarding `COc1cc(OC)nc(NC(=O)NS(=O)(=O)c2ncccc2C(=O)N(C)C)n1` [Nicosulfuron], the LD50 in data set [1] (acute, duration: 5 days, diet) was greater than 1600 mg/kg-day; in [1] (acute), greater than 2000 mg/kg-day; in data set [2] (acute, unspecified) it was greater than 2000 mg/kg-day; in data set [2] (setting [12]), greater than 911 mg/kg-day; in data set [5], greater than 5000 mg/kg-day; in data set [7] (acute, mortality), greater than 5000 mg/kg-day. Also, the LD50 in data set [8] (dermal) came to 76 µg/piece. The NOEL in data set [1] (acute) worked out at 2000 mg/kg-day; in data set [1] (short-term, duration: 5 days, diet), 1600 mg/kg-day; in data set [2] (acute, unspecified), 2000 mg/kg-day; in data set [2] (setting [12]), 911 mg/kg-day. The NOAEL was 200 mg/kg-day in [3] (chronic, duration: 1 years); 200 mg/kg-day in data set [3] (short-term, duration: 28 days); 200 mg/kg-day in data set [3] (subchronic, duration: 90 days); 199 mg/kg-day in data set [7] (chronic, duration: 2 years, hematological); 3860 mg/kg-day in data set [7] (reproduction developmental, M); 4400 mg/kg-day in [7] (reproduction developmental, mortality). Moreover, the NOEC in data set [4] worked out at 171 mg/kg-day; in data set [6] (chronic/long-term, duration: 28 days, growth) it was 10 mg/L; in data set [9], 5.2 mg/L. For the same compound, the LC50 in [6] (acute, duration: 96 hours, mortality) is 65.7 µg/mL (≈ 160 µM); in [8] (oral, feed), greater than 1000 µg/piece; in data set [10], greater than 1000 mg/kg. Besides, the LR50 in data set [11] came to 60 g/ha.
